Where two headings read alike, the source gives them in different places.
Assay: Pharmacokinetics in mouse serum after iv and oral administration of cordycepin or its azide derivative
Format: in vivo, mice
Protocol: 100 mg/kg of cordycepin or the azide derivative of cordycepin were administered intravenously (iv) (dissolved in methylsulfoxide (20 mg/ml)), or orally (dissolved in 30% glycerin (8.3 mg/ml)). Three animals for each time point were sacrificed at 0.08, 0.25, 0.5, 0.75, 1.0, 1.5, 2.0, 3.0 and 4.0 h after drug administration. Blood (serum) was collected and immediately analyzed.
An AzdU was used as an internal standard (20 μg/ml) to measure the azide derivative concentrations in serum. Tubes were vortexed and centrifuged at 9,000 rpm for 5 min.
To neutralize, perchloric acid supernatant was transferred into a clean tube with 160 μl of concentrated sodium tetraborate solution (pH 6.5). Tubes were vortexed again and centrifuged at 12,000 rpm for 15 min. Samples were held at 0° C. during analysis.
Chromatographic separations were carried out on a Shimadzy gradient HPLC system (Shimadzy Corporation, Kyoto, Japan), which was equipped with a Model SPD-10A UV detector, a Model L-10AS pump, a Model SIL-10A autosampler, a controller Model SCL-10A and a Model CR-501 reporting integrator. Chromatography was performed on an Alltech Hypersil ODS (5 μm particle size, 4.6×250 mm, Ailtech Associates, Deerfield, Ill.) to determine cordycepin and its metabolite. The azide derivative of cordycepin was analyzed on an Alltech Hypersil BDS column (5 μm particle size, 4.6×250 mm, Alltech Associates, Deerfield, Ill.).
The mobile phase for cordycepin and metabolite analysis in serum consisted of 3% acetonitrile in 20 mM sodium borate and 10 mM EDTA (pH 6.5) at a flow of 1.4 ml/min and the mobile phase for azide derivative analysis in serum consisted of 3% acetonitrile 20 mM in potassium phosphate (pH 4.0) at a flow of 1.5 ml/min. The UV detector was set at 258 nm for analysis of cordycepin and metabolite and at 290 nm for the azide derivative.
The limit of quantitation was 0.05 μg/ml for cordycepin and metabolite and 0.5 μg/ml for the azide derivative.
Plasma concentration versus time data for nucleosides were analyzed by noncompartment methods. […] Prog. Biomed. (1983) 16:203-216.
Absolute bioavailability (F) of the azide derivative was calculated from AUCor/AUCiv, where AUC values were determined from serum nucleoside concentration versus time data.
Relative exposures for cordycepin and its metabolite in serum after or versus iv administration of the derivative were calculated from AUCor/AUCiv.

[1] = female, NIH Swiss, mouse, in vivo, iv, 100 mg/kg
[2] = female, NIH Swiss, mouse, in vivo, po, 100 mg/kg
[3] = mouse serum, after iv azide derivative 100 mg/kg
[4] = mouse serum, after oral azide derivative 100 mg/kg

In the case of `O=c1[nH]cnc2c1ncn2[C@@H]1O[C@H](CO)C[C@H]1O` [Metabolite, 3′-deoxyinosine], the AUC(0-inf) [1] is reported as 3680 ± 260 ng·h/mL, the half-life [1] is reported as 30 min and the AUC(0-inf) [2] is reported as 5890 ± 590 ng·h/mL. The detection in serum [2] was “Neither 3′-deoxyinosine nor cordycepin were detected” and the half-life [2] was 39 min.

Compound `Nc1ncnc2c1ncn2[C@@H]1O[C@H](CO)C[C@H]1O` [Cordycepin, 3′-deoxyadenosine, reference compound] has an AUC(0-inf) (female, NIH Swiss, in vivo, mouse serum, after iv azide derivative 100 mg/kg, read-out: AUC0→∞ iv) of 2170 ± 350 ng·h/mL, a Cmax (female, NIH Swiss, in vivo, mouse serum, after iv azide derivative 100 mg/kg, read-out: Cmax (maximal measured concentration) iv) of 3890 ± 1720 ng/mL and a half-life (female, NIH Swiss, in vivo, mouse serum, after iv azide derivative 100 mg/kg, read-out: T½ iv (converted)) of 14.4 min. The AUC(0-inf) (female, NIH Swiss, in vivo, mouse serum, after oral azide derivative 100 mg/kg, read-out: AUC0→∞ oral) was 1630 ± 150 ng·h/mL, the Cmax (female, NIH Swiss, in vivo, mouse serum, after oral azide derivative 100 mg/kg, read-out: Cmax (maximal measured concentration) oral) was 1180 ± 600 ng/mL and the half-life (female, NIH Swiss, in vivo, mouse serum, after oral azide derivative 100 mg/kg, read-out: T½ oral (converted)) was 45.6 min. The “time of detection of cordycepin in serum above 0.05 μg/ml, iv” value (female, NIH Swiss, mouse, in vivo, iv) was ≤ 1.5 h, the “time of detection of cordycepin in serum above 0.05 μg/ml, oral” value (female, NIH Swiss, mouse, in vivo, po) was ≤ 3 h and the detection in serum [2] was “Neither 3′-deoxyinosine nor cordycepin were detected”. The “re - relative exposure: AUC ratio oral vs. intravenous (AUCor/AUCiv)” value (mouse serum, after azide derivative 100 mg/kg) was 0.75, the “cordycepin in serum samples collected 10 min later” value (mouse, in vivo, iv, 100 mg/kg) was “not recovered” and the “cordycepin in serum samples collected at 5 min” value (mouse, in vivo, iv, 100 mg/kg) was “trace amount”.

For `[N-]=[N+]=Nc1ncnc2c1ncn2[C@@H]1O[C@H](CO)C[C@H]1O` [Azide Deriv., N^6-azido-β-D-3′-deoxyribofuranosyl purine], the “absolute bioavailability after oral administration” value (mice, azide derivative) was 94%, the “AUC0→∞ iv” value [3] was 47200 ± 4010 ng·h/mL and the “Cmax (maximal measured concentration) iv” value [3] was 143000 ± 33400 ng/mL. The T½ iv [3] was 21.6 min, the T½ iv (mouse serum, after iv azide derivative 100 mg/kg, listed as azide derivative) was 21 min and the “AUC0→∞ oral” value [4] was 44500 ± 2780 ng·h/mL. For the same compound, the “Cmax (maximal measured concentration) oral” value [4] was 48200 ± 12300 ng/mL and the T½ oral [4] was 31.8 min.

Reference: patent publication US6949521B2, “Therapeutic azide compounds” (priority 1995, dated 2005)
